Assay results reported in PMC9640980, “Pharmacological evaluation of enantiomerically separated positive allosteric modulators of cannabinoid 1 receptor, GAT591 and GAT593” (Frontiers in Pharmacology, 2022).
pEC50: −log10 of the molar value.

What was measured:
male C57BL/6 mice [1] = test system: male C57BL/6 mice; set-up: method as in Garai et al., 2020; conditions: significant relative to vehicle at 3 and 10 mg/kg; ref Garai et al., 2020; cited from earlier work
male C57BL/6 mice [2] = test system: male C57BL/6 mice; set-up: method as in Garai et al., 2020; conditions: 0.1, 1, 3, or 10 mg/kg (i.p.) compared to vehicle; ref Garai et al., 2020; cited from earlier work
male C57BL/6 mice [3] = test system: male C57BL/6 mice; set-up: method as in Garai et al., 2020; conditions: 0.1, 1, 3, or 10 mg/kg (i.p.) compared to vehicle; ref Garai et al., 2020; cited from earlier work; remark: listed apart in the source
[4] = set-up: method as in Garai et al., 2020; conditions: racemic mixtures; ref Garai et al., 2020; cited from earlier work
hCB1R [5] = target: T1, hCB1R (Homo sapiens, UniProt P21554); assay: [3H]CP55,940 radioligand binding to hCB1R CHO-K1 cell membranes; conditions: for Emax ± S.E.M., [3H]CP55,940 bound: 1 nM [3H]CP55,940, Figure 4A
T1 construct: expressed in transfected cells; host or cells: CHO-K1 cell membranes
T1 sequence (P21554 whole entry): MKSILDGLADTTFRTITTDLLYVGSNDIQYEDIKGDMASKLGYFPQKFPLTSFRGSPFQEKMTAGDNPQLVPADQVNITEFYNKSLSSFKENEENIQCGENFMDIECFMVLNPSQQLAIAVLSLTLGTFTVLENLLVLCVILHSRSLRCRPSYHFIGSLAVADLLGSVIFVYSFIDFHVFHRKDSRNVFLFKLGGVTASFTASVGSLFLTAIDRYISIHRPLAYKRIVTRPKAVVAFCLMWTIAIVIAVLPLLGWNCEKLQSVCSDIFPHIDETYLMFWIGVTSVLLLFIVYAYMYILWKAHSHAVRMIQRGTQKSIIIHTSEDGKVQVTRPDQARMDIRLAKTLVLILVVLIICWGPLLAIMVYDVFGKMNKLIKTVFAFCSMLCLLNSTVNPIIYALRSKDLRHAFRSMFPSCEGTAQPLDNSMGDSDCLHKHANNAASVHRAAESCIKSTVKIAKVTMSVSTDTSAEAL
Method: The assay began with the addition of transfected hCB1R CHO-K1 cell membranes (25 µg protein per well). The assays were left to equilibrate at room temperature for 2 h before vacuum filtration using a Millipore Sigma 12-well sampling manifold and filter paper that had been soaked in wash buffer. Each reaction well was washed 3 times with a 2 ml aliquot of Tris-binding buffer. The filters were removed then submerged in 5 ml of scintillation fluid (Ultima Gold F, PerkinElmer, Buckinghamshire, United Kingdom). Radioactivity was quantified by liquid scintillation spectrometry.
(§1) Data related to EC50 and E max in Figures 3, 4 were obtained with nonlinear regression models (3-parameter model, GraphPad Prism 9.0, San Diego, CA). […] Significance was determined by one- or two-way ANOVA followed by Tukey’s or Bonferroni’s post-hoc test as indicated. p < 0.05 was considered significant and p values were only employed where ANOVA was used. Data related to Figure 5 was analyzed in GraphPad Prism 9.0 was used to analyze in vivo data and p < 0.05 was considered to be statistically significant. Data are expressed as mean ± SEM. Group sizes for all experiments are described in figure legends.

male C57BL/6 mice [6] = assay: Triad assessment in mice: catalepsy (bar holding assay); assay type: in vivo, mouse; conditions: for catalepsy, compound alone: 0.1, 1, 3, or 10 mg/kg i.p. compared to vehicle, male C57BL/6 mice, Figure 5A; for cataleptic effect, co-administered with THC: 3 and 10 mg/kg i.p. + sub-threshold 1 mg/kg THC, Figure 5D
Method: (§2) Male C57BL/6 mice (Charles River, Senneville, QC) between 4 and 7 months of age were used for these studies. Animals were group housed at the Laboratory Animal Services Unit (LASU) at the University of Saskatchewan (3-5 animals/cage) with a standard 12:12 light-dark cycle, ad libitum access to food and water, and environmental enrichment. Compounds administered intraperitoneally (i.p.) were prepared in vehicle [ethanol and cremophor in saline (1:1:8)]. Catalepsy was assessed in the bar holding assay 5 min after drug administration. Mice were placed so that their forepaws clasped a 0.7 cm ring clamp positioned 4.5 cm above the surface of the testing space ([Zagzoog et al., 2021]). The length of time the ring was held was recorded in seconds. The trial ended if the mouse turned its head or body or made 3 consecutive escape attempts to a maximum of 60 s. Body temperature was measured by rectal thermometer 15 min after drug administration. Anti-nociceptive effects were measured in the warm water (52 ± 2°C) tail-flick test 20 min after drug administration. Response in this case was defined by the removal of the tail from the warm water, with a maximal response time of 20 s. Catalepsy and tail flick data are presented as percent maximum possible effect (MPE). Compounds were administered at the doses indicated. Experimenters were blinded to treatment for all behavioral assessments and analyses. Animals were purchased, rather than bred, to reduce animal numbers. In all cases, experiments were performed with the approval of the University Animal Care Committee (UACC) at the University of Saskatchewan and are in keeping with the guidelines of the Canadian Council on Animal Care (CCAC) and the ARRIVE guidelines ([Kilkenny et al., 2010]).

human CB1R (hCB1R) [7] = target: T2, human CB1R (hCB1R) (Homo sapiens, UniProt P21554); assay: PathHunter βarrestin2 recruitment assay in hCB1R CHO-K1 cells; assay type: cell-based; conditions: for activity in the βarrestin2 recruitment assay as PAM, in words: as PAMs, 100 nM CP55,940; for βarrestin2 recruitment to hCB1R, in words: as agonist (and PAM where stated), Figures 3B,D; for EC50: compound alone, hCB1R CHO-K1, 90 min, value (95% CI), Figure 3B, read-out: EC50 (nM) 95% C.I., βarrestin2 recruitment as agonist
T2 construct: host or cells: CHO-K1 (PathHunter βarrestin2 line)
T2 sequence (P21554 whole entry): as above
Method: (§3) HitHunter (cAMP) and PathHunter (βarrestin2) Chinese hamster ovary (CHO)-K1 cells stably-expressing human CB1R (hCB1R) from DiscoveRx (Eurofins, Freemont, CA) were maintained at 37°C, 5% CO2 in DMEM/F-12 containing 10% fetal bovine serum (FBS) and 5 U × 10^4 U penicillin/streptomycin (ThermoFisher, Mississauga, ON). In addition, 800 μg/ml geneticin was used for CHO-K1 hCB1R HitHunter cAMP cells and 800 μg/ml geneticin and 300 μg/ml hygromycin B was used for CHO-K1 hCB1R PathHunter βarrestin2 cells.
βarrestin2 recruitment was determined using the hCB1R CHO-K1 cell PathHunter assay (DiscoveRx). Cells (16,000 cells/well in 96 well plates) were incubated overnight in Opti-MEM (Invitrogen) containing 1% FBS at 37°C and 5% CO2. Cells were then simultaneously treated with experimental compounds (0.10 nM–10 µM) for 90 min. Detection solution was added to cells according to the manufacturer’s protocol (DiscoveRx), and cells were incubated for 60 min at room temperature. Chemiluminescence was measured on a Cytation5 plate reader (top read, gain 200, integration time 10 s).
as §1

hCB1R [8] = target: T1, hCB1R; assay: [35S]GTPγS G protein coupling assay, membranes of CHO-K1 cells overexpressing hCB1R; assay type: biochemical; conditions: absence of orthosteric agonist, Figure 4B; for EC50: value (95% CI), read-out: EC50 (nM) 95% C.I., [35S]GTPγS binding, compound alone
Method: This assay was conducted as described in previous reports ([Garai et al., 2020]). To summarize, the assay was completed in the presence of [35S]GTPγS (0.1 nM), GDP (30 µM), GTPγS (30 µM) using membranes derived from CHO-K1 cells (1 mg/ml) overexpressing hCB1R. Assay buffer consisted of 50 mM Tris, 10 mM MgCl2, 100 mM NaCl, 0.2 mM EDTA and 1 mM dithiothreitol (DTT) at pH 7.4. Membranes were incubated at 30°C for 90 min in a total volume of […]. Reactions were ended by the addition of ice-cold wash buffer (50 mM Tris and 1 mg/ml BSA, pH 7.4) followed by rapid filtration under vacuum through pre-soaked Whatman GF/B glass-fibre filters in a 24-well sampling manifold (Brandel Cell Harvester; Brandel Inc., Gaithersburg, MD, United States). Reaction wells were washed six times with a 1.2 ml aliquots of Tris-binding buffer. Filters were subsequently oven-dried for 60 min and placed in 3 ml of scintillation fluid (Ultima Gold XR, PerkinElmer). Bound radioactivity was determined by liquid scintillation counting. Basal [35S]GTPγS binding was determined in the presence of […] GDP without any compounds present. Non-specific binding was determined in the presence of […] GTPγS.
as §1

human CB1R (hCB1R) [9] = target: T2, human CB1R (hCB1R); assay: HitHunter cAMP inhibition assay in hCB1R CHO-K1 cells (10 µM forskolin); assay type: cell-based; conditions: value (95% CI)
Method: as §3
cAMP inhibition was performed in the presence of 10 µM forskolin (FSK) using the DiscoveRx HitHunter assay in hCB1R CHO-K1 cells. Cells (16,000 cells/well in 96 well plates) were incubated overnight in Opti-MEM (Invitrogen) containing 1% FBS at 37°C and 5% CO2. Opti-MEM media was removed and replaced with cell assay buffer (DiscoveRx) and then cells were simultaneously treated with 10 µM FSK and experimental compounds (0.10 nM–10 µM) for 90 min cAMP antibody solution and working detection solutions were added according to the manufacturer’s protocol (DiscoveRx), and cells were incubated for 60 min at room temperature. cAMP solution A was added according to the manufacturer’s protocol (DiscoveRx) and cells were incubated for an additional 60 min at room temperature before chemiluminescence was measured on a Cytation5 plate reader (top read, gain 200, integration time 10 s).
as §1

male C57BL/6 mice [10] = assay: Triad assessment in mice: nociception (warm water tail-flick test); assay type: in vivo, mouse; conditions: for anti-nociceptive effects (tail flick), compound alone: 0.1, 1, 3, or 10 mg/kg i.p. compared to vehicle, male C57BL/6 mice, Figure 5C; for anti-nociceptive effect (tail flick), co-administered with THC: 3 and 10 mg/kg i.p. + sub-threshold 1 mg/kg THC, Figure 5F
Method: as §2

male C57BL/6 mice [11] = assay: Triad assessment in mice: body temperature (rectal thermometer); assay type: in vivo, mouse; conditions: for hypothermia, compound alone: 0.1, 1, 3, or 10 mg/kg i.p. compared to vehicle, male C57BL/6 mice, Figure 5B; for hypothermic effect, co-administered with THC: 3 and 10 mg/kg i.p. + sub-threshold 1 mg/kg THC, Figure 5E
Method: as §2

[12] = 100 nM CP55,940 + compound, Figure 3C, read-out: EC50 (nM) 95% C.I., cAMP inhibition as PAM
[13] = compound alone, hCB1R CHO-K1, 90 min, Figure 3A, read-out: EC50 (nM) 95% C.I., cAMP inhibition as agonist

Row | Compound | anti-nociceptive effect in the tail flick assay, racemate alone (male C57BL/6 mice [1]) | hypothermia, racemate alone (male C57BL/6 mice [2]) | catalepsy, racemate alone (male C57BL/6 mice [3]) | metabolic stability and blood brain barrier penetrance, in words [4] | pEC50 (hCB1R [5]) | Emax ± S.E.M., [3H]CP55,940 bound (hCB1R [5]) | catalepsy, compound alone (male C57BL/6 mice [6]) | activity in the βarrestin2 recruitment assay as PAM, in words (human CB1R (hCB1R) [7]) | βarrestin2 recruitment to hCB1R, in words (human CB1R (hCB1R) [7]) | EC50 (human CB1R (hCB1R) [7]) | Emax ± S.E.M., [35S]GTPγS binding, compound alone (hCB1R [8]) | EC50 (hCB1R [8]) | EC50 (human CB1R (hCB1R) [9]; [12]) | EC50 (human CB1R (hCB1R) [9]; [13]) | anti-nociceptive effects (tail flick), compound alone (male C57BL/6 mice [10]) | hypothermia, compound alone (male C57BL/6 mice [11]) | cataleptic effect, co-administered with THC (male C57BL/6 mice [6]) | anti-nociceptive effect (tail flick), co-administered with THC (male C57BL/6 mice [10]) | hypothermic effect, co-administered with THC (male C57BL/6 mice [11])
1 | O=[N+]([O-])CC(c1ccccc1F)c1c(-c2cccc(F)c2)[nH]c2cc(F)ccc12 (centres unmarked) [GAT591] | dose-dependent anti-nociceptive effect | did not produce | did not produce | – | – | – | – | – | – | – | – | – | – | – | – | – | – | – | –
2 | O=[N+]([O-])CC(c1ccccc1F)c1c(-c2cccc(F)c2)[nH]c2c(F)cccc12 (centres unmarked) [GAT593] | dose-dependent anti-nociceptive effect | did not produce | did not produce | superior to GAT591 | – | – | – | – | – | – | – | – | – | – | – | – | – | – | –
3 | O=[N+]([O-])CC(c1ccccc1F)c1c(-c2cccc(F)c2)[nH]c2cc(F)ccc12 (centres unmarked) [GAT1664] | – | – | – | – | 6.96 | 140 ± 7.0 % radioligand bound | did not produce | no activity | did not recruit βarrestin2 | > 10000 nM | 38 ± 3.1 % stimulation above baseline | 110 nM | 29 nM | 2.8 nM | did not produce | did not produce | – | – | –
4 | O=[N+]([O-])C[C@@H](c1ccccc1F)c1c(-c2cccc(F)c2)[nH]c2cc(F)ccc12 [GAT1665] | – | – | – | – | 6.85 | 190 ± 8.5 % radioligand bound | did not produce | – | recruited βarrestin2 as low-potency agonists and PAMs | > 10000 nM | 41 ± 4.2 % stimulation above baseline | 21 nM | 8.6 nM | 1.1 nM | did not produce | did not produce | significant | significant | significant
5 | O=[N+]([O-])CC(c1ccccc1F)c1c(-c2cccc(F)c2)[nH]c2c(F)cccc12 (centres unmarked) [GAT1666] | – | – | – | – | 6.85 | 140 ± 6.1 % radioligand bound | did not produce | no activity | weak ability | > 10000 nM | 29 ± 2.6 % stimulation above baseline | 120 nM | 270 nM | 1.3 nM | did not produce | did not produce | – | – | –
6 | O=[N+]([O-])C[C@@H](c1ccccc1F)c1c(-c2cccc(F)c2)[nH]c2c(F)cccc12 [GAT1667] | – | – | – | – | 7.55 | 230 ± 5.4 % radioligand bound | did not produce | – | recruited βarrestin2 as low-potency agonists and PAMs | > 10000 nM | 34 ± 2.3 % stimulation above baseline | 8 nM | 1.8 nM | 1.7 nM | did not produce | did not produce | significant | significant | significant
